According to publication PMC11949107, “Polyunsaturated fatty acids and their endocannabinoid-related metabolites activity at human TRPV1 and TRPA1 ion channels expressed in HEK-293 cells” (PeerJ, 2025):
“And” between values parts separate entries of the source, which are not always exact repeats. Equal entries are not always repeated.

What was measured:
HEK-293 EV cells = assay: Calcium 5 dye [Ca]i assay in HEK-293 empty vector (EV) cells; type: cell-based, human; conditions: 10 µM
Method: (§1) The cells were incubated in a 5% CO2 humidified atmosphere at 37 °C. Upon reaching approximately 90% confluence in 75 cm^2 flasks, they were trypsinized and transferred to poly-D-lysine coated 96-well plates (Corning, Castle Hill, NSW, Australia) in L-15 medium supplemented with 1% FBS, 100 U penicillin and 100 µg streptomycin ml^−1 (1% P/S), and 15 mM glucose (80 µL volume per well). After an overnight incubation (maximum of 16 h) in humidified room air at 37 °C, TRPV1 and TRPA1 receptor expression was induced 4 h before experimentation by adding to each well 10 µL tetracycline solution to a final concentration of 1 µg ml^−1.
Intracellular calcium [Ca]i levels were assessed using the calcium 5 kit from Molecular Devices (# R8186, Sunnyvale, CA, USA) on a FlexStation 3 Microplate Reader (Molecular Devices, Sunnyvale, CA, USA). […] 90 µL of the dye were loaded into each well of the plate and incubated for 1 h before reading in the FlexStation 3 at 37 °C. […] After 1 min of baseline recording, 20 µL of the drug, dissolved in HBSS with 1% dimethyl sulfoxide (DMSO) (cat # D2650; Sigma-Aldrich, Melbourne, Australia) was added (final DMSO concentration was 0.1% in well).
(§2) The response to agonists was expressed as a percentage change from the average baseline measurement taken for 60s before adding drug. Changes in fluorescence resulting from the addition of solvent were subtracted before normalization to baseline. Concentration–response curves (CRC), Emax and EC50 values were determined using a three-parameter logistic equation (GraphPad Prism, San Diego, CA, USA). […] Potencies were expressed as pEC50, which is the negative log of EC50 in moles per litre (Molar). Where appropriate, unpaired Student’s t-test were used to compare the responses of individual compounds in different conditions, while a one-way ANOVA followed by Dunnett’s multiple comparisons test was used to assess potential differences in responses elicited by a range of compounds. P < 0.05 was considered statistically significant.

human TRPA1 = molecular target: T1, human TRPA1 (Homo sapiens, UniProt O75762); assay: Calcium 5 dye [Ca]i assay in HEK-293 Flp-In T-REx cells expressing TRPA1 (agonist response); type: cell-based; conditions: for Elevation of [Ca]i in HEK-293 TRPA1 cells compared with HEK-293 EV cells: 10 µM (cinnamaldehyde 300 µM); for Change of Ca5 fluorescence, Mean ± SEM, TRPA1 (10 µM): HEK-293 TRPA1 cells, percentage of predrug baseline; for TRPA1 activation at the highest concentration tested / TRPA1 response compared with the highest concentration of cinnamaldehyde (300 µM) / TRPA1 response, Mean± SEM (N): 30 µM; for TRPA1 response, Mean± SEM (N): one-way ANOVA comparison with cinnamaldehyde 300 µM; for Emax at 30 µM: HEK293, read-out: Emax ± SEM % TRPA1 (30 µM); for [Ca]i response (change in fluorescence), individual replicates: sheet Figure 3(E); for Change in Ca5 fluorescence, individual experiments (CRC raw data): TRPA1 cells
T1 construct: Life Technologies (cells); host or cells: Flp-In T-REx HEK-293
T1 sequence (O75762 whole entry): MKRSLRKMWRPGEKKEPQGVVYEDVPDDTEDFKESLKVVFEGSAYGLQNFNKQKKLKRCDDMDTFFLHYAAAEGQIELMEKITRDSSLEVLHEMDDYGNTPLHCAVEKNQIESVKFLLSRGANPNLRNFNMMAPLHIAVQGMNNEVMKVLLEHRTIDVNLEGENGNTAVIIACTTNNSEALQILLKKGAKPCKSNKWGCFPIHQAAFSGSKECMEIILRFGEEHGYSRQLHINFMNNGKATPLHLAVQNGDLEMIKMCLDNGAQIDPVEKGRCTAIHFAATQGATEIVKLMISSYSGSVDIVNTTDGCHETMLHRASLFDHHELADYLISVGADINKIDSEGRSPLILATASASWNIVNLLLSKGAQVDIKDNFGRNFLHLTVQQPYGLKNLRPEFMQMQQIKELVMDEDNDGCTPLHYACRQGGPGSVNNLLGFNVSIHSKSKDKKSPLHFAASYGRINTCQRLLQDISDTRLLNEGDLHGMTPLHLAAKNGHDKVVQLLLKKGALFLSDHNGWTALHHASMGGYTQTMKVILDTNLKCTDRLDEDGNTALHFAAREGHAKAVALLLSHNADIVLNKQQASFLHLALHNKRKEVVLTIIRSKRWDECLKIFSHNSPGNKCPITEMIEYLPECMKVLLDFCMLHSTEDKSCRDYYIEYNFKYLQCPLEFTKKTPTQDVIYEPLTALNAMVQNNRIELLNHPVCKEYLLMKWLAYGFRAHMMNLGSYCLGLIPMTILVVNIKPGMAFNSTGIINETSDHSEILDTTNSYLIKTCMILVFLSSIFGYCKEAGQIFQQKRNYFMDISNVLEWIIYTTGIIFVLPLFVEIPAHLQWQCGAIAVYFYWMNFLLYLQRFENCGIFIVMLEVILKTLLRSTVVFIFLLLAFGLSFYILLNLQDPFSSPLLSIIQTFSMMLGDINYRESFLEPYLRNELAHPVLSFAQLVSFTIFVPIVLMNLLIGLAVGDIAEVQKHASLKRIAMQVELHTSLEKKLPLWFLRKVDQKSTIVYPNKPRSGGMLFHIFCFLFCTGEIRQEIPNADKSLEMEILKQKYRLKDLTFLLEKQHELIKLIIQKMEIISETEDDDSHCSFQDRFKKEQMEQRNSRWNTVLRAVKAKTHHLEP
Method: as §1
(§3) Intracellular calcium [Ca]i levels were assessed using the calcium 5 kit from Molecular Devices (# R8186, Sunnyvale, CA, USA) on a FlexStation 3 Microplate Reader (Molecular Devices, Sunnyvale, CA, USA). […] Probenecid (cat # 50027; Biotium) which helps to prevent expulsion of calcium indicator from the cells was added to a final concentration of 1.25 mM. 90 µL of the dye were loaded into each well of the plate and incubated for 1 h before reading in the FlexStation 3 at 37 °C. Fluorescence was recorded every 2 s (λ excitation = 485 nm, λ emission = 525 nm) for 5 min. After 1 min of baseline recording, 20 µL of the drug, dissolved in HBSS with 1% dimethyl sulfoxide (DMSO) (cat # D2650; Sigma-Aldrich, Melbourne, Australia) was added (final DMSO concentration was 0.1% in well).
as §2

human TRPV1 = molecular target: T2, human TRPV1 (Homo sapiens, UniProt Q8NER1); assay: Calcium 5 dye [Ca]i assay in HEK-293 Flp-In T-REx cells expressing TRPV1 (agonist response); type: cell-based; conditions: for Elevation of [Ca]i in HEK-293 TRPV1 cells compared with HEK-293 EV cells / Change of Ca5 fluorescence, Mean ± SEM, TRPV1 (10 µM): 10 µM; for Change of Ca5 fluorescence, Mean ± SEM, TRPV1 (10 µM): HEK-293 TRPV1 cells, percentage of predrug baseline; for TRPV1 response, Mean± SEM (N): 30 µM, one-way ANOVA comparison with capsaicin 10 µM; for Emax at 30 µM: HEK293, read-out: Emax ± SEM % TRPV1 (30 µM); for Change in Ca5 fluorescence, individual experiments (CRC raw data): TRPV1 cells
T2 construct: Life Technologies (cells); host or cells: Flp-In T-REx HEK-293
T2 sequence (Q8NER1 whole entry): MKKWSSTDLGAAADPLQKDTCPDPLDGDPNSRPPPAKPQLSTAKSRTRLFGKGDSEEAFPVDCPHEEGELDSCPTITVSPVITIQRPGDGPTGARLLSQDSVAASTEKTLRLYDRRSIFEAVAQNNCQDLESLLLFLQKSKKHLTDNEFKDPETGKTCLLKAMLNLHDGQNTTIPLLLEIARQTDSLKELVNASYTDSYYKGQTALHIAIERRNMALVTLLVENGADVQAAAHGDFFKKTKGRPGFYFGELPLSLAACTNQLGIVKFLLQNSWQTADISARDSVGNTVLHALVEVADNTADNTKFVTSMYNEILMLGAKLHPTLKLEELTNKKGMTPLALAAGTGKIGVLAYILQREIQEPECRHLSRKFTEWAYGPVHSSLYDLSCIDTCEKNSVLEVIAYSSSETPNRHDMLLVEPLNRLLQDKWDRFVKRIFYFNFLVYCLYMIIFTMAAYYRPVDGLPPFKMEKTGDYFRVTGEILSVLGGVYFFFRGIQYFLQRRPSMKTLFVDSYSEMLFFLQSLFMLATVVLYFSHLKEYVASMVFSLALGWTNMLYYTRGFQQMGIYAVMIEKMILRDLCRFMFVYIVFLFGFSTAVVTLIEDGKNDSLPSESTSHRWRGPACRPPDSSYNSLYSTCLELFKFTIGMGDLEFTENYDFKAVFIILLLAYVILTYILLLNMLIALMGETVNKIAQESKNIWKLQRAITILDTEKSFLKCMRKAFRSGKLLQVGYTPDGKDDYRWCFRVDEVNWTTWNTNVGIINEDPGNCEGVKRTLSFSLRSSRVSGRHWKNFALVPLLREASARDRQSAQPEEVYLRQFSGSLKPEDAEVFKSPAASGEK
Method: as §1, §3, §2

[1] = HEK-293 EV cells, percentage of predrug baseline

Compound	Change of Ca5 fluorescence, Mean ± SEM, EV (10 µM) (HEK-293 EV cells; [1])	Elevation of [Ca]i in HEK-293 TRPA1 cells compared with HEK-293 EV cells (human TRPA1)	Change of Ca5 fluorescence, Mean ± SEM, TRPA1 (10 µM) (human TRPA1)	TRPA1 activation at the highest concentration tested (human TRPA1)	TRPA1 response compared with the highest concentration of cinnamaldehyde (300 µM) (human TRPA1)	TRPA1 response, Mean± SEM (N) (human TRPA1)	Emax at 30 µM (human TRPA1)	[Ca]i response (change in fluorescence), individual replicates (human TRPA1; concentration -4.52288 (log))	[Ca]i response (change in fluorescence), individual replicates (human TRPA1; concentration -5 (log))	[Ca]i response (change in fluorescence), individual replicates (human TRPA1; concentration -5.52288 (log))	[Ca]i response (change in fluorescence), individual replicates (human TRPA1; concentration -6 (log))	Elevation of [Ca]i in HEK-293 TRPV1 cells compared with HEK-293 EV cells (human TRPV1)	Change of Ca5 fluorescence, Mean ± SEM, TRPV1 (10 µM) (human TRPV1)	Emax at 30 µM (human TRPV1)	Change in Ca5 fluorescence, individual experiments (CRC raw data) (human TRPV1; log concentration -4.52288 (M))	Change in Ca5 fluorescence, individual experiments (CRC raw data) (human TRPV1; log concentration -5 (M))	Change in Ca5 fluorescence, individual experiments (CRC raw data) (human TRPV1; log concentration -5.52288 (M))	Change in Ca5 fluorescence, individual experiments (CRC raw data) (human TRPV1; log concentration -6 (M))	Change in Ca5 fluorescence, individual experiments (CRC raw data) (human TRPV1; log concentration -6.52288 (M))	Change in Ca5 fluorescence, individual experiments (CRC raw data) (human TRPV1; log concentration -7 (M))	also measured
CCCCC/C=C\C/C=C\C/C=C\C/C=C\CCCC(=O)OC(CO)CO [2-AG, 2-arachidonoylglycerol]	4 ± 2%	did not produce a change	6 ± 1%	activated TRPA1	significantly smaller	109 ± 60	109 ± 68%	14.9622 and 7.179 and 134.366 and 9.127 and 431.447 and 54.77	4.64 and 4.022 and 10.3661 and 3.3919 and 6.211 and 4.731	6.153 and 3.314 and 8.987 and 3.008 and 4.615 and 3.811	6.477 and 4.178 and 4.8275 and 2.1815 and 3.7711 and 3.334	did not produce a notable change	30 ± 12%	78 ± 26%	27.3329 and 112.734 and 162.217 and 44.4524 and 123.109 and 0.2559	7.357 and 86.123 and 26.0517 and 22.0298 and 37.7022 and 3.715	1.982 and 59.8686 and 3.625 and 7.304 and 11.7183 and 5.763	3.178 and 11.4308 and 1.524 and 2.296 and 1.51 and 5.0359	2.799 and 5.91 and 1.131 and 13.0737 and 2.188 and 2.217	3.868 and 2.533 and 1.007 and 9.752 and 4.95 and 2.563	[Ca]i response (change in fluorescence), individual replicates (human TRPA1; concentration -6.52288 (log)): 5.571 and 5.908 and 5.712 and 6.071 and 7.256 and 4.936; [Ca]i response (change in fluorescence), individual replicates (human TRPA1; concentration -7 (log)): 4.596 and 9.253 and 10.2641 and 5.393 and 9.276 and 4.379; TRPV1 response, Mean± SEM (N) (human TRPV1): 78± 56
CCCCC/C=C\C/C=C\CCCCCCCC(=O)OC(CO)CO [2-LG, 2-linoleoyl glycerol]			6 ± 2%	no effect	significantly smaller	10± 60	10 ± 4%					significantly greater	41 ± 13 %	75 ± 13%	94.4158 and 105.55 and 25.614 and 76.6153 and 45.9507 and 101.137	77.397 and 64.9743 and 11.4263 and 68.0539 and 10.4174 and 14.0616	11.4427 and 8.3913 and 3.912 and 22.8641 and 8.0659 and 6.3713	1.494 and 8.29 and 4.971 and 3.518 and 4.176 and 6.083	-0.2355 and 4.786 and 26.5089 and 15.6203 and 3.581 and 2.28	0.8392 and 7.338 and 6.807 and 12.2096 and 4.264 and 3.998	Change of Ca5 fluorescence, Mean ± SEM, EV (10 µM) (HEK-293 EV cells): 4 ± 1%; Change in Ca5 fluorescence, individual experiments (CRC raw data) (human TRPA1; log concentration -4.52288 (M)): 12.5375 and 5.756 and 5.697 and 4.08 and 3.702 and 27.8122; Change in Ca5 fluorescence, individual experiments (CRC raw data) (human TRPA1; log concentration -5 (M)): 11.4202 and 3.2095 and 1.996 and 7.055 and 3.7574 and 11.3273; Change in Ca5 fluorescence, individual experiments (CRC raw data) (human TRPA1; log concentration -5.52288 (M)): 11.369 and 3.556 and 1.657 and 5.485; Change in Ca5 fluorescence, individual experiments (CRC raw data) (human TRPA1; log concentration -6 (M)): 12.4294 and 3.284 and 5.41 and 5.662 and 4.232 and 5.177; Change in Ca5 fluorescence, individual experiments (CRC raw data) (human TRPA1; log concentration -6.52288 (M)): 12.1064 and 3.832 and 1.455 and 7.527; Change in Ca5 fluorescence, individual experiments (CRC raw data) (human TRPA1; log concentration -7 (M)): 15.3703 and 7.007 and 2.201 and 137.719; TRPV1 response, Mean± SEM (N) (human TRPV1): 75± 56
CCCCC/C=C\C/C=C\C/C=C\C/C=C\CCCC(=O)NCCO [AEA, anandamide]	10 ± 2%	did not produce a change	78 ± 40%	activated TRPA1	significantly smaller	206 ± 60	206 ± 60%	380.839 and 400.035 and 86.0795 and 138.88 and 106.55 and 121.01	270.188 and 95.8276 and 43.3617 and 6.8753 and 19.4528 and 34.7169	11.1594 and 5.44 and 3.581 and 5.875	11.3796 and 3.6077 and 1.689 and 3.893 and 4.817 and 2.419	significantly greater	188 ± 36 %	304 ± 55%	110.333 and 353.13 and 181.656 and 93.5107 and 312.513 and 324.288	107.669 and 250.336 and 142.845 and 78.9426 and 274.449 and 272.34	104.24 and 119.191 and 18.6933 and 67.9069 and 43.3725 and 39.8495	85.0507 and 18.1779 and 2.315 and 21.1299 and 4.82 and -0.1525	25.9314 and 10.5855 and 2.141 and 2.529 and 1.6051 and -0.1939	9.794 and 11.1798 and 5.889 and 1.561 and 3.7 and 2.135	[Ca]i response (change in fluorescence), individual replicates (human TRPA1; concentration -6.52288 (log)): 9.429 and 4.648 and 1.238 and 3.414; [Ca]i response (change in fluorescence), individual replicates (human TRPA1; concentration -7 (log)): 11.2147 and 3.27 and 3.337 and 2.558; EC50 (human TRPV1): 7.94 µM; Maximal TRPV1 response compared with the highest concentration of capsaicin (human TRPV1; 30 µM vs capsaicin 10 µM): did not differ
